Test results reported in US12221423B1, “3-(3-fluorophenyl)-5-(4-methoxybenzylthio)-4-phenyl-4H-1,2,4-triazole as an antimicrobial compound” (KING FAISAL UNIVERSITY, priority 2023, dated 2025).

Columns and labels:
Type in all cases: cell-based
Bacillus Cereus = assay: Agar plate disc-diffusion, antibacterial inhibition zone; details: Bacillus Cereus (Gram positive), nutrient agar, 37° C., 48 hours
Procedure: (§1) The agar plate disc-diffusion method was applied. […] The discs were then placed onto the surface of agar plates (nutrient agar for bacteria and Sabouraud's dextrose agar for fungi) seeded with the test organism. Each plate contained 15 mL of the agar medium, previously seeded with 0.2 mL of the broth culture of each organism pregrown for 18 hours. The plates were incubated at 37° C. for 48 hours, and 72 hours for fungi. The inhibition zones were measured in mm. Discs impregnated with DMSO were used as a control, and its inhibition zone was subtracted from the tested compound actual inhibition zone.

Escherichia coli = assay: as above; details: Escherichia coli (Gram negative), nutrient agar, 37° C., 48 hours
Procedure: as §1

Pseudomonas aeruginosa = assay: as above; details: Pseudomonas aeruginosa (Gram negative), nutrient agar, 37° C., 48 hours
Procedure: as §1

Staphylococcus aureus = assay: as above; details: Staphylococcus aureus (Gram positive), nutrient agar, 37° C., 48 hours
Procedure: as §1

Aspergillus flavus = assay: Agar plate disc-diffusion, antifungal inhibition zone; details: Sabouraud's dextrose agar, 72 hours
Procedure: as §1

[1] = system: Chrysosporium keratinophilum; assay: as above; details: Sabouraud's dextrose agar, 72 hours
Procedure: as §1

[2] = A = concentration of comp. = 10,000 μL
[3] = B = concentration of comp. = 30,000 μL
[4] = C = concentration of comp. = 50,000 μL

COc1ccc(CSc2nnc(-c3cccc(F)c3)n2-c2ccccc2)cc1 [III, 3-(3-fluorophenyl)-5-(4-methoxybenzylthio)-4-phenyl-4H-1,2,4-triazole]
inhibition zone (Bacillus Cereus; [2]): 24 mm
inhibition zone (Bacillus Cereus; [3]): 27 mm
inhibition zone (Bacillus Cereus; [4]): 40 mm
inhibition zone (Escherichia coli; [2]): 27 mm
inhibition zone (Escherichia coli; [3]): 35 mm
inhibition zone (Escherichia coli; [4]): 48 mm
inhibition zone (Pseudomonas aeruginosa; [2]): 22 mm
inhibition zone (Pseudomonas aeruginosa; [3]): 25 mm
inhibition zone (Pseudomonas aeruginosa; [4]): 36 mm
inhibition zone (Staphylococcus aureus; [2]): 16 mm
inhibition zone (Staphylococcus aureus; [3]): 22 mm
inhibition zone (Staphylococcus aureus; C = concentration of comp.): 34 mm
inhibition zone (Aspergillus flavus; [2]): 19 mm
inhibition zone (Aspergillus flavus; [3]): 22 mm
inhibition zone (Aspergillus flavus; [4]): 31 mm
inhibition zone [1, 2]: 26 mm
inhibition zone [1, 3]: 28 mm
inhibition zone [1, 4]: 42 mm
